Laboratory results: patent US20110028455A1, “Indole-substituted 3-cyanopyridines As Kinase Inhibitors” (Wyeth LLC, priority 2007, published 2011)

Biological target: T1, human PKCθ full length enzyme (Homo sapiens, UniProt Q04759)
T1 construct: human PKCθ full length enzyme (Panvera Cat# P2996); purchased Panvera P2996
Assay: PKCθ IMAP Assay
Type: biochemical
Conditions: PKCθ 1 nM; ATP 6 μM; peptide 100 nM; DMSO 5%; 25 minutes at room temperature; FP readout; read-out: PKC-Theta Mean IC50
Procedure: The materials used include the following: human PKCθ full length enzyme (Panvera Cat# P2996); substrate peptide: 5FAM-RFARKGSLRQKNV-OH (Molecular Devices, RP7032); ATP (Sigma Cat # A2383); DTT (Pierce, 20291); 5× kinase reaction buffer (Molecular Devices, R7209); 5× binding buffer A (Molecular Devices, R7282), 5× binding buffer B (Molecular Devices, R7209); IMAP Beads (Molecular Devices, R7284); and 384-well plates (Corning Costar, 3710).
The reaction buffer was prepared by diluting the 5× stock reaction buffer and adding DTT to obtain a concentration of 3.0 mM. The binding buffer was prepared by diluting the 5× binding buffer A. A master mix solution was prepared using a 90% dilution of the reaction buffer containing 2×ATP (12 uM) and 2× peptide (200 nm). Compounds were diluted in DMSO to 20× of the maximum concentration for the IC50 measurement. 27 μl of the master mix solution for each IC50 curve was added to the first column in a 384-well plate and 3 μl of 20× compound in DMSO was added to each well.
The final concentration of compound was 2× and 10% DMSO. DMSO was added to the rest of the master mix to increase the concentration to 10%. 10 μl of the master mix containing 10% DMSO was added to the rest of the wells on the plate except the 2nd column. 20 μl was transferred from the first column to the 2nd column. The compounds were serially diluted in 2:1 ratio starting from the 2nd column. A 2×(2 nM) PKCθ solution was made in the reaction buffer. 10 μl of the PKCθ solution was added to every well to achieve these final concentrations: PKCθ-1 nM; ATP-6 μM; peptide-100 nM; DMSO-5%. Samples were incubated for 25 minutes at room temperature. The binding reagent was prepared by diluting the beads in 1× binding buffer to 800:1. 50 μl of the binding reagent was added to every well and incubated for 20 minutes. FP was measured using Envision2100 (PerkinElmer Life Sciences). Wells with no ATP and wells with no enzyme were used as controls.

T1 sequence (Q04759 whole entry): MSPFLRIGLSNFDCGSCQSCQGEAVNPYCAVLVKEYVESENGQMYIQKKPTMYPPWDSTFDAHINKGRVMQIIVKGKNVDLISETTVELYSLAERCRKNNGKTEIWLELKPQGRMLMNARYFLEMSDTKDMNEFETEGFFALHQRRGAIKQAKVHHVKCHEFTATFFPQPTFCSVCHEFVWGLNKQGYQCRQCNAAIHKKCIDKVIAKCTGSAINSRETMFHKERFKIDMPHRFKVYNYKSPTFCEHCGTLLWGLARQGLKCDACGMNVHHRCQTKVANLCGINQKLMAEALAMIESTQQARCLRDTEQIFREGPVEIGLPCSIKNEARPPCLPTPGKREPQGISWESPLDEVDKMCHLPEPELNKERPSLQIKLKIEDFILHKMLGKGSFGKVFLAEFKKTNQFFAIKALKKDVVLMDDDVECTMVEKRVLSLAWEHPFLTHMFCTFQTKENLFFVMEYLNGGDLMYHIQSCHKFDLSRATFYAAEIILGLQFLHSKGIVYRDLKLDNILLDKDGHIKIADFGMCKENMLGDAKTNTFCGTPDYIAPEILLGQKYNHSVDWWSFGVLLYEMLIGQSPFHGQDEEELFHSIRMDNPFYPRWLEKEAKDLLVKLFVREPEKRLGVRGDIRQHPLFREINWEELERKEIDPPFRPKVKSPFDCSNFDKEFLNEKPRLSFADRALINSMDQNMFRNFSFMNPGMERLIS

Row | Structure (SMILES) | IC50 [nM]
1 | Cc1ncc(C#N)c(Nc2ccc3[nH]ccc3c2C)c1-c1ccc(OCCNCCCO)cc1 [Example 18, 5-(4-{2-[(3-hydroxypropyl)amino]ethoxy}phenyl)-6-methyl-4-[(4-methyl-1H-indol-5-yl)amino]nicotinonitrile] | 40
2 | Cc1ncc(C#N)c(Nc2ccc3[nH]ccc3c2C)c1-c1ccc(OCCNCCN2CCCC2)cc1 [Example 21, 6-methyl-4-[(4-methyl-1H-indol-5-yl)amino]-5-(4-{2-[(2-pyrrolidin-1-ylethyl)amino]ethoxy}phenyl)nicotinonitrile] | 26
3 | Cc1ncc(C#N)c(Nc2ccc3[nH]ccc3c2C)c1-c1ccc(OCCN2CCC(N3CCCCC3)CC2)cc1 [Example 27, 5-{4-[2-(1,4′-bipiperidin-1′-yl)ethoxy]phenyl}-6-methyl-4-[(4-methyl-1H-indol-5-yl)amino]nicotinonitrile] | 30
4 | Cc1ncc(C#N)c(Nc2ccc3[nH]ccc3c2C)c1-c1ccc(OCCN2CCC(N3CCOCC3)CC2)cc1 [Example 28, 6-methyl-4-[(4-methyl-1H-indol-5-yl)amino]-5-{4-[2-(4-morpholin-4-ylpiperidin-1-yl)ethoxy]phenyl}nicotinonitrile] | 28
5 | Cc1ncc(C#N)c(Nc2ccc3[nH]ccc3c2C)c1-c1ccc(OCCN2CCCNCC2)cc1 [Example 34, 5-{4-[2-(1,4-diazepan-1-yl)ethoxy]phenyl}-6-methyl-4-[(4-methyl-1H-indol-5-yl)amino]nicotinonitrile] | 14
6 | COc1ccc(-c2c(C)ncc(C#N)c2Nc2ccc3cc[nH]c3c2)cc1OC [Example 46, 5-(3,4-dimethoxyphenyl)-4-(1H-indol-6-ylamino)-6-methylnicotinonitrile] | 11900
7 | COc1ccc(-c2c(C)ncc(C#N)c2Nc2ccc3[nH]c(C)cc3c2)cc1OC [Example 48, 5-(3,4-dimethoxyphenyl)-6-methyl-4-[(2-methyl-1H-indol-5-yl)amino]nicotinonitrile] | 556
8 | COc1ccc(-c2c(C)ncc(C#N)c2Nc2ccc3[nH]ccc3c2)cc1OC [Example 51, 5-(3,4-dimethoxyphenyl)-4-(1H-indol-5-ylamino)-6-methylnicotinonitrile] | 31
9 | COc1cccc(-c2c(C)ncc(C#N)c2Nc2ccc3[nH]ccc3c2)c1 [Example 53, 4-(1H-indol-5-ylamino)-5-(3-methoxyphenyl)-6-methylnicotinonitrile] | 34
10 | COc1ccc(-c2c(C)ncc(C#N)c2Nc2ccc3[nH]ccc3c2)cc1 [Example 54, 4-(1H-indol-5-ylamino)-5-(4-methoxyphenyl)-6-methylnicotinonitrile] | 41
11 | Cc1ncc(C#N)c(Nc2ccc3[nH]ccc3c2)c1-c1cc2ccccc2o1 [Example 55, 5-(1-benzofuran-2-yl)-4-(1H-indol-5-ylamino)-6-methylnicotinonitrile] | 26
12 | Cc1ncc(C#N)c(Nc2ccc3[nH]ccc3c2)c1-c1cccc(CN(C)C)c1 [Example 57, 5-{3-[(dimethylamino)methyl]phenyl}-4-(1H-indol-5-ylamino)-6-methylnicotinonitrile] | 87
13 | COc1ccc(-c2c(C)ncc(C#N)c2Nc2cc(Cl)c3[nH]ccc3c2C)cc1OC [Example 64, 4-[(7-chloro-4-methyl-1H-indol-5-yl)amino]-5-(3,4-dimethoxyphenyl)-6-methylnicotinonitrile] | 84
14 | Cc1ncc(C#N)c(Nc2ccc3[nH]ccc3c2)c1-c1cccs1 [Example 65, 4-(1H-indol-5-ylamino)-6-methyl-5-(2-thienyl)nicotinonitrile] | 80

More lines, in order of falling IC50, values ahead:

Row | IC50 [nM] | Structure (SMILES)
15 | 250 | COc1ccccc1-c1c(C)ncc(C#N)c1Nc1ccc2[nH]ccc2c1 [Example 52, 4-(1H-indol-5-ylamino)-5-(2-methoxyphenyl)-6-methylnicotinonitrile]
16 | 191 | CCc1ncc(C#N)c(Nc2ccc3[nH]ccc3c2C)c1-c1ccc(OC)c(OC)c1 [Example 61, 5-(3,4-dimethoxyphenyl)-6-ethyl-4-[(4-methyl-1H-indol-5-yl)amino]nicotinonitrile]
17 | 137 | Cc1ncc(C#N)c(Nc2ccc3[nH]ccc3c2)c1-c1cc2ccccc2s1 [Example 56, 5-(1-benzothiophen-2-yl)-4-(1H-indol-5-ylamino)-6-methylnicotinonitrile]
18 | 68 | Cc1ncc(C#N)c(Nc2ccc3[nH]ccc3c2C)c1-c1ccc(OCCN2CCC(CCO)CC2)cc1 [Example 25, 5-(4-{2-[4-(2-hydroxyethyl)piperidin-1-yl]ethoxy}phenyl)-6-methyl-4-[(4-methyl-1H-indol-5-yl)amino]nicotinonitrile]
19 | 64 | Cc1ncc(C#N)c(Nc2ccc3[nH]ccc3c2C)c1-c1ccc(OCCNCc2cccnc2)cc1 [Example 41, 6-methyl-4-[(4-methyl-1H-indol-5-yl)amino]-5-(4-{2-[(pyridin-3-ylmethyl)amino]ethoxy}phenyl)nicotinonitrile]
20 | 50 | Cc1ncc(C#N)c(Nc2ccc3[nH]ccc3c2)c1-c1ccccc1 [Example 50, 4-(1H-indol-5-ylamino)-6-methyl-5-phenylnicotinonitrile]
21 | 44 | Cc1ncc(C#N)c(Nc2ccc3[nH]ccc3c2C)c1-c1ccc(OCCN2CCCCC2)cc1 [Example 24, 6-methyl-4-[(4-methyl-1H-indol-5-yl)amino]-5-[4-(2-piperidin-1-ylethoxy)phenyl]nicotinonitrile]
22 | 42 | Cc1ncc(C#N)c(Nc2ccc3[nH]ccc3c2C)c1-c1ccc(OCCN2CC(C)NCC2C)cc1 (stereo not shown) [Example 31, 5-{4-[2-(2,5-dimethylpiperazin-1-yl)ethoxy]phenyl}-6-methyl-4-[(4-methyl-1H-indol-5-yl)amino]nicotinonitrile]
23 | 42 | Cc1ncc(C#N)c(Nc2ccc3[nH]ccc3c2C)c1-c1cccc(CN(C)C)c1 [Example 66, 5-{3-[(dimethylamino)methyl]phenyl}-6-methyl-4-[(4-methyl-1H-indol-5-yl)amino]pyridine-3-carbonitrile]
24 | 41 | Cc1ncc(C#N)c(Nc2ccc3[nH]ccc3c2C)c1-c1ccc(OCCNCc2ccncc2)cc1 [Example 42, 6-methyl-4-[(4-methyl-1H-indol-5-yl)amino]-5-(4-{2-[(pyridin-4-ylmethyl)amino]ethoxy}phenyl)nicotinonitrile]
25 | 31 | Cc1ncc(C#N)c(Nc2ccc3[nH]ccc3c2C)c1-c1ccc(OCCN2CCC(N3CCCC3)CC2)cc1 [Example 26, 6-methyl-4-[(4-methyl-1H-indol-5-yl)amino]-5-{4-[2-(4-pyrrolidin-1-ylpiperidin-1-yl)ethoxy]phenyl}nicotinonitrile]
26 | 25 | Cc1ncc(C#N)c(Nc2ccc3[nH]ccc3c2C)c1-c1ccc(OCCN2CC(C)NC(C)C2)cc1 (stereo not shown) [Example 32, 5-{4-[2-(3,5-dimethylpiperazin-1-yl)ethoxy]phenyl}-6-methyl-4-[(4-methyl-1H-indol-5-yl)amino]nicotinonitrile]
27 | 21 | Cc1ncc(C#N)c(Nc2ccc3[nH]ccc3c2C)c1-c1ccc(C=O)o1 [Example 67, 5-(5-formylfuran-2-yl)-6-methyl-4-[(4-methyl-1H-indol-5-yl)amino]pyridine-3-carbonitrile]
28 | 19 | Cc1ncc(C#N)c(Nc2ccc3[nH]ccc3c2C)c1-c1ccc(OCCNCCO)cc1 [Example 17, 5-(4-{2-[(2-hydroxyethyl)amino]ethoxy}phenyl)-6-methyl-4-[(4-methyl-1H-indol-5-yl)amino]nicotinonitrile]
